Patent publication US10570150B2, “6,7-trans cephalosporin-based probes for detecting bacteria expressing a metallo-beta-lactamase” (priority 2014, dated 2020)
Marks after values point to notes of the source that are not given here.

How the values were obtained:
[1] = test system: E. coli with IMP-1; settings: IMP-1-expressing bacteria; 2 h incubation
[2] = target: T1, NDM-1 (Klebsiella pneumoniae, UniProt C7C422); assay type: biochemical, Escherichia coli; settings: probe 10 μM, 2 h; for fluorescence enhancement: NDM-1 1 to 200 fmols, 25 μL 1×PBS pH 7.4, room temperature; for amount of enzyme giving detectable fluorescence: NDM-1
[3] = Spontaneous hydrolysis of probe in PBS buffer; assay type: physicochemical; settings: [S]0=20 μM
Source text: FIGS. 14A-14G illustrate the spontaneous hydrolysis in buffer of a probe according to the disclosure. FIG. 14A is a schema illustrating the spontaneous hydrolysis of a probe of the disclosure in PBS buffer to release umbelliferone and thereby generate a fluorescent signal. […] Initial concentration of probe, [P]: […] Error bars indicate the standard deviations of three replicate experiments.

[4] = target: TEM-1 Bla (Escherichia coli, UniProt P62593); assay type: biochemical; settings: TEM-1 Bla 1 to 200 fmols; probe 10 μM, 25 μL 1×PBS pH 7.4, room temperature, 2 h
[5] = test system: VIM-27; assay: Fluorescence of probes after incubation with recombinant VIM-27; assay type: biochemical, Klebsiella pneumoniae; settings: probe 10 μM, 2 h; for fluorescence enhancement: VIM-27 1 to 200 fmols, 25 μL 1×PBS pH 7.4, room temperature
Protocol: (§1) The fluorescence of the probes was measured before and after enzyme treatment using enzyme concentrations in the range of about 1 to about 200 fmols. […] CDC-1, a previously reported non-specific probe for β-lactamases employed as a positive control, as described by Xie et al., (2012) J. Nat.

[6] = target: T2, KPC-3 (Klebsiella pneumoniae, UniProt Q9F663, H272Y); assay type: biochemical; settings: probe 10 μM, 2 h; for fluorescence enhancement: KPC-3 1 to 200 fmols, 25 μL 1×PBS pH 7.4, room temperature; for amount of enzyme giving detectable fluorescence: KPC-3
[7] = target: BlaC (Mycobacterium tuberculosis, UniProt P9WKD3); assay: Fluorescence of probes after incubation with recombinant BlaC; assay type: biochemical; settings: BlaC 1 to 200 fmols; probe 10 μM, 25 μL 1×PBS pH 7.4, room temperature, 2 h
Protocol: as §1

[8] = target: T2, KPC-3; settings: from Lineweaver-Burk plots
[9] = target: T3, IMP-1 (Serratia marcescens, UniProt P52699); assay type: biochemical, Escherichia coli; settings: probe 10 μM, 2 h; for fluorescence enhancement: IMP-1 1 to 200 fmols, 25 μL 1×PBS pH 7.4, room temperature
[10] = test system: VIM-27; assay: Kinetic parameters of probes with recombinant VIM-27 (Lineweaver-Burk plots); settings: from Lineweaver-Burk plots
[11] = test system: non-carbapenemase lactamases; assay: Hydrolysis of probes by non-carbapenemase lactamases
[12] = test system: [H][C@]1(OC)C(=O)N2C(C(=O)O)=C(COc3ccc4ccc(=O)oc4c3)CS[C@@]21[H]; assay: purified protein, by the assay type; settings: from Lineweaver-Burk plots
[13] = test system: [H][C@]1(OC(C)(C)C)C(=O)N2C(C(=O)O)=C(COc3ccc4ccc(=O)oc4c3)CS[C@@]21[H]; assay: purified protein, by the assay type; settings: from Lineweaver-Burk plots
[14] = test system: [H][C@]1(OCc2ccccc2)C(=O)N2C(C(=O)O)=C(COc3ccc4ccc(=O)oc4c3)CS[C@@]21[H]; assay: purified protein, by the assay type; settings: from Lineweaver-Burk plots
[15] = test system: [H][C@]1(OS(=O)(=O)c2ccc(C)cc2)C(=O)N2C(C(=O)O)=C(COc3ccc4ccc(=O)oc4c3)CS[C@@]21[H]; assay: purified protein, by the assay type; settings: from Lineweaver-Burk plots
[16] = test system: [H][C@]1(OC(C)C)C(=O)N2C(C(=O)O)=C(COc3ccc4ccc(=O)oc4c3)CS[C@@]21[H]; assay: purified protein, by the assay type; settings: from Lineweaver-Burk plots
[17] = test system: [H][C@]1(OCC)C(=O)N2C(C(=O)O)=C(COc3ccc4ccc(=O)oc4c3)CS[C@@]21[H]; assay: purified protein, by the assay type; settings: from Lineweaver-Burk plots
[18] = target: T1, NDM-1; settings: from Lineweaver-Burk plots
[19] = target: T3, IMP-1; settings: from Lineweaver-Burk plots

| Compound | fluorescence enhancement [2] | Spontaneous hydrolysis rate [3] | fluorescence enhancement [4] | fluorescence enhancement [5] | fluorescence enhancement [6] | fluorescence enhancement [7] | Km [8] | kcat [8] | fluorescence enhancement [9] | Km [10] | kcat [10] | further results |
| --- | --- | --- | --- | --- | --- | --- | --- | --- | --- | --- | --- | --- |
| CO[C@H]1C(=O)N2C(C(=O)O)=C(COc3ccc4ccc(=O)oc4c3)CS[C@H]12 [(s)-CC-1, (6R,7S)-7-methoxy-8-oxo-3-(((2-oxo-2H-chromen-7-yl)oxy)methyl)-5-thia-1-azabicyclo[4.2.0.]oct-2-ene-2-carboxylic Acid] | high fluorescence signals | 7e-08 s⁻¹ | almost no fluorescence enhancement | high fluorescence signals | high fluorescence signals | almost no fluorescence enhancement | 67.7 ± 4.9 µM | 1.5 ± 0.05 s⁻¹ | high fluorescence signals | 29.2 ± 7 µM | 1.1 ± 0.1 s⁻¹ | number of bacteria detected / detection limit [1]: ≤ 10^4 c.f.u. |
| O=C(O)C1=C(COc2ccc3ccc(=O)oc3c2)CS[C@@H]2[C@@H](OCc3ccccc3)C(=O)N12 [(s)-CC-5, (6R,7S)-7-(benzyloxy)-8-oxo-3-(((2-oxo-2H-chromen-7-yl)oxy)methyl)-5-thia-1-azabicyclo[4.2.0]oct-2-ene-2-carboxylic Acid] | high fluorescence signals | 2.7e-07 s⁻¹ | almost no fluorescence enhancement | high fluorescence signals | high fluorescence signals | almost no fluorescence enhancement | 5.2 ± 0.5 µM | 1.1 ± 0.01 s⁻¹ | high fluorescence signals | 145 ± 100 µM | 3.4 ± 1.5 s⁻¹ | hydrolysis by non-carbapenemase lactamases [11]: no hydrolysis |
| CC(C)(C)O[C@H]1C(=O)N2C(C(=O)O)=C(COc3ccc4ccc(=O)oc4c3)CS[C@H]12 [(s)-CC-4, (6R,7S)-7-(tert-butoxy)-8-oxo-3-(((2-oxo-2H-chromen-7-yl)oxy)methyl)-5-thia-1-azabicyclo[4.2.0]oct-2-ene-2-carboxylic Acid] | – | 5.4e-07 s⁻¹ | – | – | – | – | 121 ± 85 µM | 0.2 ± 0.1 s⁻¹ | high specificity for IMP-1 | 91.6 ± 10.1 µM | 0.2 ± 0.01 s⁻¹ | number of bacteria detected / detection limit [1]: about 1×10^5 c.f.u.; amount of enzyme giving detectable fluorescence [2]: about 200 fmol; hydrolysis by non-carbapenemase lactamases [11]: No hydrolysis |
| IMP-1 (Serratia marcescens) | – | – | – | – | – | – | – | – | – | – | – | Km ([12]; other: IMP-1): 7.8 ± 0.2 µM; kcat ([12]; other: IMP-1): 12.2 ± 0.1 s⁻¹; kcat/Km ([12]; other: IMP-1): 1.6 × 10^6 s^−1M^−1; Km ([13]; other: IMP-1): 9.4 ± 1.3 µM; kcat ([13]; other: IMP-1): 2.1 ± 0.01 s⁻¹; kcat/Km ([13]; other: IMP-1): 2.2 × 10^5 s^−1M^−1; Km ([14]; other: IMP-1): 3.6 ± 0.1 µM; kcat ([14]; other: IMP-1): 4.2 ± 0.03 s⁻¹; kcat/Km ([14]; other: IMP-1): 1.2 × 10^6 s^−1M^−1; Km ([15]; other: IMP-1): 3.4 ± 0.4 µM; kcat ([15]; other: IMP-1): 2.2 ± 0.02 s⁻¹; kcat/Km ([15]; other: IMP-1): 6.6 × 10^5 s^−1M^−1; Km ([16]; other: IMP-1): 3.2 ± 0.07 µM; kcat ([16]; other: IMP-1): 8.0 ± 0.04 s⁻¹; kcat/Km ([16]; other: IMP-1): 2.5 × 10^6 s^−1M^−1; Km ([17]; other: IMP-1): 12.9 ± 1.0 µM; kcat ([17]; other: IMP-1): 16.6 ± 0.1 s⁻¹; kcat/Km ([17]; other: IMP-1): 1.3 × 10^6 s^−1M^−1 |
| Cc1ccc(S(=O)(=O)O[C@H]2C(=O)N3C(C(=O)O)=C(COc4ccc5ccc(=O)oc5c4)CS[C@H]23)cc1 [(s)-CC-6, (6R,7S)-8-oxo-3-(((2-oxo-2H-chromen-7-yl)oxy)methyl)-7-(tosyloxy)-5-thia-1-azabicyclo[4.2.0]oct-2-ene-2-carboxylic Acid] | fluorescence enhancement | 2.6e-07 s⁻¹ | – | fluorescence enhancement | – | – | 18.7 ± 7.8 µM | 0.3 ± 0.05 s⁻¹ | fluorescence enhancement | 14.1 ± 1.2 µM | 3.9 ± 0.1 s⁻¹ | amount of enzyme giving detectable fluorescence [2]: ≤ 1.0 fmol; amount of enzyme giving detectable fluorescence ([5]; VIM-27): ≤ 1.0 fmol; amount of enzyme giving detectable fluorescence [6]: 200 fmol; amount of enzyme giving detectable fluorescence ([9]; IMP-1): ≤ 1.0 fmol |
| O=C(Cc1ccccc1)N[C@@H]1C(=O)N2C(C(=O)O)=C(COc3ccc4ccc(=O)oc4c3)CS[C@H]12 [CDC-1, reference compound] | positive fluorescence enhancement | 2.4^b ×10^−7s^−1 | positive fluorescence enhancement | positive fluorescence enhancement | positive fluorescence enhancement | positive fluorescence enhancement | 21 ± 1.34 µM | 35.4 ± 0.04 s⁻¹ | positive fluorescence enhancement | 3.8 ± 2.7 µM | 2.3 ± 0.3 s⁻¹ | Km [18]: 5.04 ± 3.2 µM; kcat [18]: 4.6 ± 0.3 s⁻¹; Km [19]: 4 ± 0.1 µM; kcat [19]: 7.9 ± 0.1 s⁻¹ |
| CC(C)O[C@H]1C(=O)N2C(C(=O)O)=C(COc3ccc4ccc(=O)oc4c3)CS[C@H]12 [(s)-CC-3, (6R,7S)-7-isopropoxy-8-oxo-3-(((2-oxo-2H-chromen-7-yl)oxy)methyl)-5-thia-1-azabicyclo[4.2.0]oct-2-ene-2-carboxylic Acid] | fluorescence enhancement | 4.8e-07 s⁻¹ | – | fluorescence enhancement | – | – | 250 ± 235 µM | 0.2 ± 0.17 s⁻¹ | fluorescence enhancement | 61.3 ± 8.8 µM | 0.5 ± 0.04 s⁻¹ | amount of enzyme giving detectable fluorescence [6]: 200 fmol |
| NDM-1 (Klebsiella pneumoniae) | – | – | – | – | – | – | – | – | – | – | – | Km ([12]; other: NDM-1): 12.0 ± 0.7 µM; kcat ([12]; other: NDM-1): 0.2 ± 0.02 s⁻¹; kcat/Km ([12]; other: NDM-1): 2.0 × 10^4 s^−1M^−1; Km ([13]; other: NDM-1): 58.6 ± 16.0 µM; kcat ([13]; other: NDM-1): 0.3 ± 0.04 s⁻¹; kcat/Km ([13]; other: NDM-1): 5.1 × 10^3 s^−1M^−1; Km ([14]; other: NDM-1): 26.7 ± 0.2 µM; kcat ([14]; other: NDM-1): 0.3 ± 0.0 s⁻¹; kcat/Km ([14]; other: NDM-1): 1.0 × 10^4 s^−1M^−1; Km ([15]; other: NDM-1): 4.7 ± 0.3 µM; kcat ([15]; other: NDM-1): 1.9 ± 0.06 s⁻¹; kcat/Km ([15]; other: NDM-1): 4.0 × 10^5 s^−1M^−1; Km ([16]; other: NDM-1): 6.0 ± 3.5 µM; kcat ([16]; other: NDM-1): 0.1 ± 0.01 s⁻¹; kcat/Km ([16]; other: NDM-1): 2.0 × 10^4 s^−1M^−1; Km ([17]; other: NDM-1): 14.9 ± 2.7 µM; kcat ([17]; other: NDM-1): 0.3 ± 0.01 s⁻¹; kcat/Km ([17]; other: NDM-1): 1.7 × 10^4 s^−1M^−1 |
| CCO[C@H]1C(=O)N2C(C(=O)O)=C(COc3ccc4ccc(=O)oc4c3)CS[C@H]12 [(s)-CC-2, (6R,7S)-7-ethoxy-8-oxo-3-(((2-oxo-2H-chromen-7-yl)oxy)methyl)-5-thia-1-azabicyclo[4.2.0]oct-2-ene-2-carboxylic Acid] | high fluorescence signals | 5.9e-07 s⁻¹ | almost no fluorescence enhancement | high fluorescence signals | high fluorescence signals | almost no fluorescence enhancement | 39.1 ± 1.3 µM | 0.3 ± 0.05 s⁻¹ | high fluorescence signals | 23 µM | 0.71 ± 0.0 s⁻¹ | – |
